Measurements as given in patent US11491245B2, “Gadolinium chelate compounds for use in magnetic resonance imaging” (BAYER PHARMA AKTIENGESELLSCHAFT, priority 2015, dated 2022).

Assays:
[1] = Relaxivity measurements at 1.41 T; format: physicochemical
Protocol: Relaxivity measurements at 1.41 T were performed using a MiniSpec mq60 spectrometer (Bruker Analytik, Karlsruhe, Germany) operating at a resonance frequency of 60 MHz and a temperature of 37° C. The T1 relaxation times were determined using the standard inversion recovery (IR) method with a fixed relaxation delay of at least 5×T1. The variable inversion time (TI) was calculated automatically by the standard software of the MiniSpec mq60 (8 steps). The T2 measurements were done by using a Carr-Purcell-Meiboom-Gill (CPMG) pulse sequence, applying a relaxation delay of at least 5×T1.
Each relaxivity measurement was performed using three different Gd concentrations (3 concentrations between 0.05 and 2 mM). The T1 and T2 relaxation times of the example compounds 1-10 were measured in different media for example in water, fetal bovine serum (FBS, Sigma, F7524) and human plasma.
(§1) Human plasma preparation: For each experiment fresh blood was taken from a volunteer using 10 mL citrate-tubes (Sarstedt S-Monovette 02.1067.001, 10 mL, Citrate). The 10 mL citrate-tubes were carefully inverted 10 times to mix blood and anticoagulant and centrifuged for 15 minutes at 1811 g at room temperature (Eppendorf, Centrifuge 5810R).
The relaxivities ri (where i=1, 2) were calculated on the basis of the measured relaxation rates Ri in water and plasma: Ri=Ri(0)+ri[CGd], where Ri(0) represent the relaxation rate of the respective solvent and CGd the concentration of the compound normalized to the Gadolinium. The Gadolinium concentrations of the investigated solutions were verified by Inductively Coupled Plasma Mass Spectroscopy (ICP-MS Agilent 7500a, Waldbronn, Germany).

[2] = Relaxivity measurements at 3.0 T; format: physicochemical; conditions: 37° C., normalized to Gd, average ± standard deviation
Protocol: Relaxivity measurements at 3.0 T were performed with a whole body 3.0 T MRI Scanner (Philips Intera, Philips Healthcare, Hamburg, Germany) using a knee-coil (SENSE-Knee-8, Philips Healthcare, Hamburg, Germany). The sample tubes (CryoTubetm Vials, Thermo Scientific 1.8 mL, Roskilde, Denmark) were positioned in 3 rows of 4 and 5 tubes in a plastic holder in a box filled with water. The temperature was adjusted to 37° C. For the MRI sequence, the shortest possible echo-time (TE) with 7.46 milliseconds was used. The inversion times were chosen to optimize the sequence to measure T1 values corresponding to the estimated T1 range of all relaxation times of contrast media containing solutions. The following inversion times (TIs) were applied: 50, 100, 150, 200, 300, 500, 700, 1000, 1400, 2100, 3200, and 4500 milliseconds. The sequence was run with a constant relaxation delay of 3.4 seconds after the registration of the last echo (variable TR in the range from 3450 to 7900 milliseconds). For details of the fit procedure, see Rohrer et. al. (Invest. Radiol. 2005; 40, 11: 715-724). The experimental matrix of the phantom measurement was 320×320.
The relaxivities were evaluated using three different concentrations of each compound (3 concentrations between 0.05 and 2 mM).
as §1, with “The T1 relaxation times of the Example compounds 1-6 were measured in water and human plasma. Human” for “Human”
The relaxivities ri (where i=1, 2) were calculated on the basis of the measured relaxation rates Ri in water and plasma: Ri=Ri(0)+ri[CGd], where Ri(0) represent the relaxation rate of the respective solvent and CGd the concentration of the compound normalized to the Gadolinium (Table 2).

[3] = Chemical stability (autoclaving at 121° C.); format: physicochemical; conditions: 5 mmol Gd/L in 10 mM Tris-HCl buffer, pH 7.4, 121° C. for 20 min
[4] = Water solubility; format: physicochemical; conditions: 10 mM Tris-HCl buffer, 20° C.
Protocol: The water solubility of the compounds was determined at room temperature (20° C.) in 0.5 mL buffer solution (10 mM Tris-HCl) in the microcentrifuge tubes (Eppendorf, 2.0 mL safe-lock caps). The solid compound was added stepwise to the buffer solution. The suspension was mixed using a shaker (Heidolph Reax 2000) and treated 5 min in an ultrasound bath (Bandelin, Sonorex Super RK255H) The suspension was stored at room temperature (20° C.) over night and final Gadolinium concentration was determined by inductively coupled plasma mass spectrometry (ICP-MS).

[5] = Off target activity screen (LeadProfilingScreen®, radioligand binding and enzyme assays); conditions: commercial radioligand binding and enzyme assays
[6] = tested on: GS9L brain tumors; experiment: Contrast-enhanced MRI of brain tumors in rats; format: in vivo, male Fisher rats (F344); conditions: GS9L rat brain tumors, 0.1 mmol Gd/kg bw vs Reference compound 1 0.1 mmol Gd/kg bw, FIG. 11A

With `CC(C(=O)NCC(=O)NCC(CNC(=O)CNC(=O)C(C)N1CCN(CC(=O)[O-])CCN(CC(=O)[O-])CCN(CC(=O)[O-])CC1)(CNC(=O)CNC(=O)C(C)N1CCN(CC(=O)[O-])CCN(CC(=O)[O-])CCN(CC(=O)[O-])CC1)CNC(=O)CNC(=O)C(C)N1CCN(CC(=O)[O-])CCN(CC(=O)[O-])CCN(CC(=O)[O-])CC1)N1CCN(CC(=O)[O-])CCN(CC(=O)[O-])CCN(CC(=O)[O-])CC1.[Gd+3].[Gd+3].[Gd+3].[Gd+3]` (stereo not shown) [Example 3, Tetragadolinium [4,10-bis(carboxylatomethyl)-7-{3,6,12,15-tetraoxo-16-[4,7,10-tris-(carboxylatomethyl)-1,4,7,10-tetraazacyclododecan-1-yl]-9,9-bis({[({2-[4,7,10-tris-(carboxylatomethyl)-1,4,7,10-tetraazacyclododecan-1-yl]propanoyl}amino)acetyl]-amino}methyl)-4,7,11,14-tetraazaheptadecan-2-yl}-1,4,7,10-tetraazacyclododecan-1-yl]acetate] as the molecule, how does the “r1 FBS” value ([1]; fetal bovine serum, 1.41 T, 37° C., normalized to Gd) read?
Its value is 11.5 L/mmol/s.

What about the r1 human plasma ([1]; human plasma, 1.41 T, 37° C., normalized to Gd) of the same molecule?
The r1 human plasma was 11.8 L/mmol/s.

What about the “relaxivity relative to reference compound 1” value ([1]; see Example A) of the same molecule?
Its value is “approximately 2 fold”.

And the r1 water ([1]; water, 1.41 T, 37° C., normalized to Gd)?
Its r1 water is 10.1 L/mmol/s.

What about the r1 human plasma ([2]; human plasma) of the same molecule?
The r1 human plasma was 10.2 ± 0.2 L/mmol/s.

And the r1 water ([2]; water)?
Its r1 water is 9.2 ± 0.3 L/mmol/s.

And the “appearance of the solution after autoclaving” value [3]?
The value was “still clear and colorless”.

And the Solubility [4]?
The Solubility was greater than 1400 mmol Gd/L.

What about the off target activity [5] of the same molecule?
Its off target activity is “no critical finding”.

What about the “lesion-to-brain contrast at the same dose” value [6] of the same molecule?
The value was “higher lesion-to-brain contrast and an excellent demarcation of the tumor rim”.
